Measured values published in patent US20260138970A1, “MODULATORS OF THE CALCIUM SIGNALING CASCADE” (FONDAZIONE TELETHON ETS, priority 2022, published 2026).

How the values were obtained:
Type in all cases: cell-based
TMEM16A = assay: HS-YFP assay in FRT cells co-expressing TMEM16A and HS-YFP; conditions: for potentiation of the effect of UTP on TMEM16A: primary screening and secondary tests, compounds 10 μM
Method: Experiments were performed using an automated microplate reader (FLUOstar Omega, BMG Labtech, Offenburg, Germany) equipped with syringe pumps and optical excitation/emission filters optimized for yellow fluorescent protein (YFP) fluorescence (ET500/20× and ET535/30m, respectively; Chroma Technology Corporation). FRT cells with co-expression of TMEM16A and HS-YFP were plated at high density in black wall/clear bottom 96-well microplates (3603, Corning). Each well in microplates was washed 3 times with 150 μl of phosphate-buffered saline (PBS). After washing, each well received 60 μl of PBS containing test compounds at 10 μM final concentration, or TMEM16A inhibitor Ani9 (15) (10 μM), or vehicle. After 20 min of incubation at 37° C., microplates were transferred to the plate reader for fluorescence assay. Each well was assayed individually for TMEM16A-mediated I^− influx by sampling cell fluorescence every 200 ms for 14 s. Two seconds after the start of reading, 165 μl of a modified PBS containing 137 mM KI, instead of NaCl, plus UTP 0.25 μM were automatically added by the reader. K^+ was used in the injected solution to prevent changes of membrane potential due to altered activity of Ca^2+-activated K^+ channels. The fluorescence trace in each well was corrected by background subtraction and then normalized for the initial value measured before I^− addition (F0). The cumulative fluorescence quenching (CFQ) in the time interval between 3 and 13.8 s (representing integration of TMEM16A-dependent I^− influx) was quantified using a procedure compiled in Microsoft Excel according to the formula
For the screening, FRT cells were plated at high density in 96-well microplates. After 48 h, TMEM16A activity was evaluated in a microplate reader by injection in each well of a saline solution containing I^− instead of Cl^− and a submaximal (0.25 μM) UTP concentration (FIG. 1A). Upon injection, UTP triggers Ca^2+ mobilization and TMEM16A activation. The resulting TMEM16A-dependent I^− influx causes HS-YFP quenching. The presence in the well of a small molecule that potentiates TMEM16A activity, in a direct or indirect way, is therefore expected to enhance the rate of HS-YFP quenching.

ITPR3 = biological target: T1, ITPR3 (Homo sapiens, UniProt Q14573); assay: Fluo-4 Ca2+ assay, UTP, HEK293 cells with selective expression of ITPR3 (HEKR3); conditions: compounds 10 μM; UTP 5 μM; FIG. 2C
T1 construct: host or cells: HEKR3 (HEK293)
Method: (§1) HEK293 cells totally devoid of ITPR expression (HEK3XKO) or with selective expression of ITPR1 (HEKR1), ITPR2 (HEKR2), or ITPR3 (HEKR3), obtained by selective gene ablation, were purchased from Kerafast (catalog number: EURO30, EURO31, EURO32, EURO33) and cultured in a mixture of Dulbecco's Modified Eagle Medium (DMEM, high glucose version) and Ham's F12 (1:1) and supplemented with 10% fetal bovine serum, 2 mM L-glutamine, 100 U/ml penicillin and 100 μg/ml streptomycin.
(§2) Experiments were performed using the microplate reader described for the HS-YFP assay. FRT and HEK293 cells were cultured until confluence in 96-well microplates (3603, Corning). Cells were washed 2 times with PBS (150 μl/wash) and then loaded for 1 h at 37° C. with 5 μM Fluo-4/AM (Thermo Fisher Scientific; catalog number: F23917) in PBS containing 10 mM glucose, 0.5 mM sulfinpyrazone, and 1% fetal bovine serum. After loading, cells were washed 2 times with PBS-glucose-sulfinpyrazone (150 μl/wash) and incubated for 20 min at 37° C. with 60 μl of PBS plus 10 mM glucose and 0.5 mM sulfinpyrazone containing compounds of interest at 10 μM final concentration or vehicle. Each well was assayed individually. Fluo-4 fluorescence (500 nm excitation, 535 nm emission) was detected every 200 ms for 16-40 s. Two seconds after the start of fluorescence recording, the reader automatically injected 165 μl of a modified PBS containing 136 mM KCl instead of NaCl. This solution also contained 10 mM glucose, 0.5 mM sulfinpyrazone, and UTP or SLIGR-NH2 (CAS #171436-38-7) at a final concentration that depended on the specific cell type. For UTP we used: 0.25 μM for FRT; 1 μM for HEKR2; 5 μM for HEK3XKO, HEKR1, and HEKR3. For SLIGR-NH2 we used: 10 μM for HEKR1; 4 μM for HEKR2. These concentrations were chosen to elicit ˜20% of maximal effect based on UTP and SLIGR-NH2 dose-response relationships. […] The Fluo-4 fluorescence increase was quantified using a procedure compiled in Microsoft Excel after background subtraction and normalization for the initial value measured before UTP addition.

ITPR = assay: ci-IP3/PM uncaging Ca2+ imaging assay in FRT cells; conditions: compounds 10 μM; FIG. 4
Method: FRT and HEK293 cells were cultured in μ-Plate96 microplates (Ibidi) at subconfluent condition. Cells were washed 2 times with PBS (150 μl/wash) and then loaded for 45 min at 37° C. with 1 μM ci-IP3/PM (Tocris; catalog number: 6210/10U) and 5 μM Fluo-4/AM (Thermo Fisher Scientific) in PBS containing 10 mM glucose, 0.5 mM sulfinpyrazone and 1% fetal bovine serum. After 45 min, cells were further incubated for 1 h at 37° C. with a fresh PBS solution containing Fluo-4/AM, glucose, sulfinpyrazone, serum, but no ci-IP3/PM. After the second loading, cells were washed 2 times with PBS-glucose-sulfinpyrazone (150 μl/wash) and incubated for 20 min at 37° C. with 125 μl of PBS plus 10 mM glucose and 0.5 mM sulfinpyrazone containing compounds of interest at 10 μM final concentration or vehicle. Each well was assayed individually using an inverted Olympus microscope equipped with 40×oil immersion objective, 530 nm emission filter, Lambda DG4 (Sutter Instrument Co., Novato, CA, USA) illumination system with a 490 nm excitation filter, (Olympus, Segrate, Italy), Prime cmos camera (Photometrics, Tucson, AZ, USA) and MetaFluor imaging acquisition software (Molecular Devices, Sunnyvale, CA, USA). Time-lapse experiments were carried out with 50 ms exposure time, 0.5 s interval and 1.8 min total duration. […] Analysis was performed with MetaFluor software, by quantifying Fluo-4 fluorescence in manually selected single cell region of interest (ROI). Eight cells were selected in each field to generate an average trace. After background subtraction, fluorescence traces were normalized for the initial value.

ITPR1 = ITPR1 (Homo sapiens, UniProt Q14643); assay: Fluo-4 Ca2+ assay, UTP, HEK293 cells with selective expression of ITPR1 (HEKR1); set-up: host or cells: HEKR1 (HEK293); conditions: compounds 10 μM; UTP 5 μM; FIG. 2C
Method: as §1, §2

[1] = FRT cells expressing TMEM16A, UTP 0.25 μM, FIG. 1D

Sequence of ITPR1 (Q14643 whole entry): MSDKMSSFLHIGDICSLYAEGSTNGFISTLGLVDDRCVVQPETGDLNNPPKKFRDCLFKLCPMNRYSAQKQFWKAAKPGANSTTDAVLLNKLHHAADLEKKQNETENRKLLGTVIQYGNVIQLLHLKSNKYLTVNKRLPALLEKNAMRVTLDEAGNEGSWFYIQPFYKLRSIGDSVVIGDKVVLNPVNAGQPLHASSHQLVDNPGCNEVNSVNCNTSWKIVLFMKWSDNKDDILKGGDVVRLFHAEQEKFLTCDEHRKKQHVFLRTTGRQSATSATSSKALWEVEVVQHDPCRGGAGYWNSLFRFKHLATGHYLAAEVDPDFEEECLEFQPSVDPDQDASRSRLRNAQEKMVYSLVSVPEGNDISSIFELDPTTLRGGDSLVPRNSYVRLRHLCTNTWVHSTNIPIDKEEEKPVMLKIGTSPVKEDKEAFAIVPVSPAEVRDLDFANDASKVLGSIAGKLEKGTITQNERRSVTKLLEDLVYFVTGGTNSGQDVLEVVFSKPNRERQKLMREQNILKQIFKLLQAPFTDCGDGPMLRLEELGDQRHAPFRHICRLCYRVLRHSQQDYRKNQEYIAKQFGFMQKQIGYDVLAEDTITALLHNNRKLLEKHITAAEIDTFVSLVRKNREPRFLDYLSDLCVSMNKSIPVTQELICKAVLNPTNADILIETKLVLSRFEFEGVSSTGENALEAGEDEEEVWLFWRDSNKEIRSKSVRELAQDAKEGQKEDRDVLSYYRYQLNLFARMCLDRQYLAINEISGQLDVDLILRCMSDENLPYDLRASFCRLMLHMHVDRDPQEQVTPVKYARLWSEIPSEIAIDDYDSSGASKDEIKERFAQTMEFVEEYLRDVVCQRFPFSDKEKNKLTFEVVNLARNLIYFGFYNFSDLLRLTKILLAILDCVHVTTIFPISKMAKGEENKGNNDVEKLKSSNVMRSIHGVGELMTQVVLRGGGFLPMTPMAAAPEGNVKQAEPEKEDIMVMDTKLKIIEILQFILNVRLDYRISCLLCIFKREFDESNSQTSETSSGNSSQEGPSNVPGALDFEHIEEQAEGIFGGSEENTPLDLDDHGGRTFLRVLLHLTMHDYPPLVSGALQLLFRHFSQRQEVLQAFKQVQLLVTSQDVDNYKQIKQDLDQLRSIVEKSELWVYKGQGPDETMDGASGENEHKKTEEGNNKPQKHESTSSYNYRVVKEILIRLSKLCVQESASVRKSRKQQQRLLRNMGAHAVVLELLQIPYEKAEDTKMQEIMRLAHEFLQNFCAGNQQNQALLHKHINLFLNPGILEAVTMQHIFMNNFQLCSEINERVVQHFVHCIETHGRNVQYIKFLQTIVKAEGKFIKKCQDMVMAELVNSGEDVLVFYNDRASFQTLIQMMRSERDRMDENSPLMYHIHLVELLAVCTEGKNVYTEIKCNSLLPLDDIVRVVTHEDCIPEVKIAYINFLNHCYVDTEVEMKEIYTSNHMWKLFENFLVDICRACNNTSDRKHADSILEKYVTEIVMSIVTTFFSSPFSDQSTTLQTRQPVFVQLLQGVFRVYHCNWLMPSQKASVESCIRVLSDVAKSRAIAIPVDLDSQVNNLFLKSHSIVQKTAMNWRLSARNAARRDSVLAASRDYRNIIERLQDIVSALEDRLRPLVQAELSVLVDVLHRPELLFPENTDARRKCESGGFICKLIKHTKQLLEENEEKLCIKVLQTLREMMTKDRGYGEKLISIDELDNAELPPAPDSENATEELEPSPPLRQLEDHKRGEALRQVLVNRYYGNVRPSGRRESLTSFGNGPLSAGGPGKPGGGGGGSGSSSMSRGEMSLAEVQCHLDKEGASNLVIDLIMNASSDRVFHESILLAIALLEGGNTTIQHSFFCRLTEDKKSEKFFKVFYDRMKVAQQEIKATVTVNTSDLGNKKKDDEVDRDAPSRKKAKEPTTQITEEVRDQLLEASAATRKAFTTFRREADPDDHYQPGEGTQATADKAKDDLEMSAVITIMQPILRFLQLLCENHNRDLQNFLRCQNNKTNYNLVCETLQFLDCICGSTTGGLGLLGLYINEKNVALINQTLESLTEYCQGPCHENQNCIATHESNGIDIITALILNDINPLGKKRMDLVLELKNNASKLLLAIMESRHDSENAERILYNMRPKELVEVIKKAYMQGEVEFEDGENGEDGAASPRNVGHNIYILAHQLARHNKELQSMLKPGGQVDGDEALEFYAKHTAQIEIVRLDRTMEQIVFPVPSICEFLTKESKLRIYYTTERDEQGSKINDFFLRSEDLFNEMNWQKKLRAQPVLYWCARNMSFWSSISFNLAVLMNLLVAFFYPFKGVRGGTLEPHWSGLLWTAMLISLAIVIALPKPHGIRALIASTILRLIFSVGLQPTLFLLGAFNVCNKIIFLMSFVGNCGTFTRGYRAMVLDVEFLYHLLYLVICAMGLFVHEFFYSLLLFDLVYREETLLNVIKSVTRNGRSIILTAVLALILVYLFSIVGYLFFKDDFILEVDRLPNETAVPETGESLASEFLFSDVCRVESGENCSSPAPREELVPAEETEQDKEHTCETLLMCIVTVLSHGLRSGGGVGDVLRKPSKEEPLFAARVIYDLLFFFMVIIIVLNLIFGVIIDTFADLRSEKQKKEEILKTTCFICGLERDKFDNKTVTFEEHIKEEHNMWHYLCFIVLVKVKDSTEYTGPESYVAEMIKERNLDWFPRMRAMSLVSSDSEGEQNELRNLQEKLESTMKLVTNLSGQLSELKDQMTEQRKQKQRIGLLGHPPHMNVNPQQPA

SMILES | concentrations at which effective / active, dose-response by HS-YFP assay (TMEM16A; [1]) [µM] | shape of dose-response relationship, HS-YFP assay (TMEM16A; [1]) | potentiation of the effect of UTP on TMEM16A (TMEM16A) | potentiation of UTP-elicited Ca2+ increase, ITPR3-only cells (ITPR3) | activity on Ca2+ mobilization by IP3 uncaging, FRT cells (ITPR) | potentiation of UTP-elicited Ca2+ increase, ITPR1-only cells (ITPR1)
CCc1cc(-c2cc(NCCCOc3ccccc3C)nc(N)n2)n(C)n1 [ARN7149, 6-(3-Ethyl-1-methyl-1H-pyrazol-5-yl)-N^4-(3-(o-tolyloxy)propyl)pyrimidine-2,4-diamine] | 5 to 20 | bell-shaped | significantly potentiated | always effective | inactive | always effective
OCc1ccccc1CN(Cc1ccnc(N2CCCC2)n1)c1ccc(F)cc1 [ARN4550, [2-[[4-Fluoro-N-[(2-pyrrolidin-1-ylpyrimidin-4-yl)methyl]anilino]methyl]phenyl]methanol] | 10 | – | significantly potentiated | always effective | inactive | always effective
CCn1nc2c(c1C(=O)Nc1ccccc1OCC1CCCCO1)CCCC2 (stereo not shown) [ARN11391, 2-Ethyl-N-[2-(tetrahydropyran-2-ylmethoxy)phenyl]-4,5,6,7-tetrahydroindazole-3-carboxamide] | 10 | – | significantly potentiated | only effective in cells with ITPR1 | showed activity | effective
